In patent US9206124B2, “Treatment of drug-resistant cancer with 2-aryl-2-(3-indolyl) acetohydroxamates” (New Mexico Technical Research Foundation, priority 2013, dated 2015):

Experiments:
T98G glioblastoma cells = assay: MTT antiproliferative assay, T98G; type: cell-based; settings: Homo sapiens, 48 h treatment, ± SD, read-out: GI50 in vitro, T98G
Procedure: (§1) As part of the ongoing efforts aimed at identification of compounds active against cancer cells displaying resistance to proapoptotic agents, the selected 2-aryl-2-(3-indolyl)-acetohydroxamates were evaluated for in vitro growth inhibition against a panel of additional cancer cell lines including those resistant to various proapoptotic stimuli, such as human T98G and U87 glioblastoma and human A549 non-small-cell-lung cancer (NSCLC), as well as an apoptosis-sensitive tumor model, such as human Hs683 anaplastic oligodendroglioma, used as a reference. The data reveal that for the most part these compounds retain the single-digit antiproliferatve GI50 values in this challenging cancer cell panel.
(§2) Human cancer cell lines were obtained from the American Type Culture Collection (ATCC, Manassas, Va., USA), the European Collection of Cell Culture (ECACC, Salisbury, UK) and the Deutsche Sammlung von Mikroorganismen and Zellkulturen (DSMZ, Braunschweig, Germany). Human cervical adenocarcinoma HeLa cells were cultured in DMEM supplemented with 10% fetal bovine serum (FBS). Human mammary carcinoma MCF-7 cells were cultured in RPMI supplemented with 10% FBS. The U87 cells (ATCC HTB-14) were cultured in DMEM culture medium, while the A549 cells (DSMZ ACC107) were cultured in RPMI culture medium supplemented with 10% heat-inactivated FBS. The glioblastoma multiforme Hs683 (ATCC HTB-138) and the T98G (ATCC CRL-1690) cell lines were cultivated in DMEM supplemented with 10% FBS. The Human uterine sarcoma MES-SA and MES-SA/Dx5 cells were cultured in RPMI-1640 medium supplemented with 10% FBS with MES SA/Dx5 maintained in the presence of 500 nM Doxorubicin (Sigma). SKMEL-28 cells (ATCC HTB72) and U373 glioblastoma cells (ECACC 08061901) were cultured in RPMI culture medium supplemented with 10% heat-inactivated FBS. Cell culture media were supplemented with 4 mM glutamine (Lonza code BE17-605E), 100 μg/mL gentamicin (Lonza code 17-5182), and penicillin-streptomycin (200 units/ml and 200 μg/ml) (Lonza code 17-602E). Neurosphere culture GBM 031810 was established using known methods and maintained in Neurobasal medium (Invitrogen Carlsbad, Calif.) with B27 supplement (20 ul/ml; Invitrogen), Glutamax (10 ul/ml; Invitrogen), fibroblast growth factor-2 (20 ng/ml; Peprotech, Rocky Hill, N.J., USA), epidermal growth factor (20 ng/ml; Peprotech), heparin (32 IE/ml; Sigma Aldrich, St. Louis, Mo.), and penicillin-streptomycin (1×, Invitrogen). Growth factors and heparin were renewed twice weekly. All cell lines were cultured in T25 flasks, maintained and grown at 37° C., 95% humidity, 5% CO2.
(§3) Antiproliferative properties of the synthesized compounds were evaluated by the MTT assay. All compounds were dissolved in DMSO at a concentration of either 100 mM or 50 mM prior to cell treatment. The cells were trypsinized and seeded at 4×10^3 cells per well into 96-well plates. The cells were grown for 24 h, treated with compounds at concentrations ranging from 0.001 to 100 μM and incubated for 48 h in 200 μL media. 20 μL of MTT reagent in serum free medium (5 mg/mL) was added to each well and incubated further for 2 h. Media was removed and the resulting formazan crystals were re-solubilized in 200 μL of DMSO. A490 was measured using a Molecular Devices Thermomax plate reader. The experiments were performed in quadruplicate and repeated at least twice for each compound per cell line. Cells treated with 0.1% DMSO were used as a negative control; 1 μM phenyl arsine oxide (PAO) was used as a positive control.

[1] = system: GBM 031810 neurosphere cells; assay: Antiproliferative effect on patient-derived GBM neurosphere culture; type: cell-based; settings: Homo sapiens, average IC50 ± SD from three determinations, read-out: GI50 in vitro, GBM 031810 (average IC50)
From the text: Given the ability of the hydroxamates to overcome drug resistance a few select compounds were further evaluated against glioma cells grown in neurosphere conditions, which are known to promote the growth of stem-like cells from human glioma tissue. Indeed, the neurospheres show the ability of self-renewal by regrowing in culture from individual cells, and can differentiate into multiple neural lineages and recapitulate human gliomas on both histological and genetic levels more faithfully than serum cultured glioma cell lines when injected into the brains of mice. Because, neurosphere cells are generally resistant to radiation and chemotherapy, the micromolar to submicromolar activity of the hydroxamates against the glioma neurosphere cell cultures is noteworthy (Table 4). […] It is worthy of note, that the unmethylated MGMT promoter leading to such temozolomide resistance is found in about half of all GBM patients, who respond poorly to temozolomide chemotherapy. To date, no alternative treatment exists for this group of patients.
as §2, with “Growth factors and heparin were renewed twice weekly. All cell lines were cultured in T25 flasks, maintained and grown at 37° C., 95% humidity, 5% CO2.” left out

[2] = system: MES-SA uterine sarcoma cells; assay: MTT antiproliferative assay, MES-SA; type: cell-based; settings: Homo sapiens, 48 h treatment, ± SD, read-out: GI50 in vitro, MES-SA
Procedure: Compared with the intrinsic drug resistance, as described above for such cancers as glioblastoma and melanoma, a large variety of tumors can also develop resistance to anticancer drugs resulting in MDR as explained previously. To assess whether the hydroxamates can overcome this resistance mechanism, selected hydroxamates were tested against MDR cells (Table 4). The MDR uterine sarcoma cell line MES-SA/Dx5 was utilized for this experiment. This cell line was established from the parent uterine sarcoma MES-SA, grown in the presence of increasing concentrations of doxorubicin and known to be resistant to a number of P-gp substrates. […] In contrast, there was only a small variation in the sensitivities of the two cell lines towards the hydroxamates indicating their potential to overcome clinical multi-drug resistance.
as §2, §3

U87 glioma cells = assay: Redifferentiation of U87 cells to an astrocytic phenotype; type: cell-based, human; settings: GI50 concentration (7 μM, 33-day treatment, FIG. 5C)
Procedure: Although such redifferentiation processes are known, there are only a few small molecule agents reported to induce these epigenetic transformations.
U87 cells were plated at a density of 5×10^4 cells per well in 24-well plate in DMEM supplemented with 10% FBS. The following day, the cells in each well were re-fed with 1 mL of fresh DMEM/10% FBS, and treated with 3aafa to a final concentration between 15 and 5 μM. Cells were placed into the CO2 incubator and media was not replaced for the duration of the experiment.

[3] = system: HeLa cervical and MCF-7 breast adenocarcinomas; assay: In vitro growth inhibition (MTT); type: cell-based, human; settings: HeLa and MCF-7
From the text: This finding led to an exploration of the SAR analyses by synthesizing the first generation compounds 3 containing diverse substituents at different positions in the 2-aryl-2-(3-indolyl)acetohydroxamate skeleton and testing this series for in vitro growth inhibition using the MTT colorimetric assay against two cell lines, human HeLa cervical and MCF-7 breast adenocarcinomas (Table 1). It emerged from these experiments that the substitution on the benzene ring of the indole moiety (R^2≠H) was not tolerated (e.g., 3abfa and 3acfa), whereas the nitrogen could be derivatized (R^1≠H) with only a small activity drop (e.g., 3bafa vs 3aafa).
as §3

U87 glioblastoma cells = assay: MTT antiproliferative assay, U87; type: cell-based, human
Procedure: as §1, §2, §3

GI50 (T98G glioblastoma cells): 36.4 ± 1.9 µM
GI50 [2]: 2 ± 0.2 µM
antiproliferative potency (GI50) [3]: single-digit micromolar
GI50 (U87 glioblastoma cells; Homo sapiens, 48 h treatment, MTT, ± SD, read-out: GI50 in vitro, U87): 9.5 ± 0.3 µM
SMILES: O=C(NO)C(c1ccccc1)c1c(-c2ccc3ccccc3c2)[nH]c2ccccc12 (stereo not shown) [Compound 3aafa]
IC50 [1]: 0.8 ± 0.6 µM
phenotypic morphological changes of U87 cells (U87 glioma cells): ceased to replicate and appeared to undergo redifferentiation to a non-malignant state resembling an astrocytic phenotype
activity against cell populations resistant to proapoptotic agents, U87 (U87 glioblastoma cells; FIG. 3, increasing concentration): potent growth inhibitory properties against most of the cells
